Several values for one entry are separate records, joined by “and”; a condition that tells them apart may be missing. Equal entries are not always repeated. Entries after “also recorded” stand apart in the source; their conditions may differ. Where two headings read alike, the source gives them in different places.
What was measured:
Pseudomonas aeruginosa = assay type: cell-based; conditions: disc diffusion
P. acnes = assay type: cell-based; conditions: disc diffusion
EGF [1] = assay: Local growth hormone levels in normal mouse skin (Example 4); assay type: in vivo, mice; conditions: 100 μM topical, normal rodent skin
Description: (§1) Mice were shaved but unstrapped and uninfected (normal rodent skin). The test reagents were applied topically in an aqueous solution on the unstripped site at two hours and daily on day 1, 2 and 3. Testing reagents consisted of […] and PCA formulated at one dose, 100 μM in an aqueous solution.

IGF-1 [2] = assay: as above; assay type: in vivo, mice; conditions: 100 μM topical, normal rodent skin
Description: as §1

TGF-β = assay: as above; assay type: in vivo, mice; conditions: 100 μM topical, normal rodent skin
Description: as §1

[3] = tested on: skin stripped wounds infected with Pseudomonas aeruginosa (ATCC 27853); assay: Histological assessment of tape-stripped, infected mouse skin wound (Example 6); conditions: for tissue repair as evidenced by histology: two different doses
[4] = tested on: P. aeruginosa (ACTA 27853); assay type: in vivo; conditions: for kill of Pseudomonas aeruginosa: both reagents and dose; for dose with most significant decrease of bacteria: day two and four; for bactericidal on stripped skin wound: 48 to 96 hours
[5] = tested on: P. aeruginosa (ACTA 9027); assay type: in vivo; conditions: day five; for bacterial burden: topical 50, 100, 200 mM in water, none statistically significant; for most effective dose: topical, aqueous
[6] = upon ingestion; cited from earlier work
Candida albicans = assay type: cell-based; conditions: disc diffusion
Description: This example describes the method for testing the antimicrobial susceptibility of anthocyanins, anthocyanidins, or metabolites and compounds thereof. The Kirby-Bauer method of disc diffusion was used for testing, following a standard set of procedures recommended by the NCCLS. In this methodology, a set of discs saturated with either testing compounds or a control was placed on inoculated agar plates. The plates were inoculated with organisms including C. difficile, P. acnes, C. prefringens, L. casei, C. albicans, E. coli, ATTC 8739 and ATCC 43895, S. aureus, S. mutans, S. pyogenes, P. aeruginosa and K. pneumonia. The control sample was amoxicillin, an antimicrobial with very effective broad-spectrum antibiotic properties. Samples included delphinidin, pelargonidin, cyanidin CI, 28% cyanindin-3-glucoside (C3G), protocatechuic acid (PCA) and 2,4,6 Trihydroxybenzaldehyde (2,4,6 THBA).
After 18, 24, or 48 hours of incubation, depending upon the microorganism, each plate was examined. The diameters of the zones of complete inhibition were measured, including the diameter of the disc. Zones were measured to the nearest millimeter, using sliding calipers. The size of the zones of inhibition was interpreted by referring to NCCLS standard. […]

[7] = Solubility and hydrophilic-lipophile balance; assay type: physicochemical
EGF [8] = assay: Growth hormone levels in stripped mouse skin by ELISA (Example 5); assay type: in vivo, mice; conditions: 25 mM, infected and treated wound, 48 hours
Description: (§2) Four different conditions were used: mice had back skin tape stripped and the stripped site (wound) was infected with P. aeruginosa; mice had back skin stripped and were not infected, mice had taped stripped, infected and treated with PCA, mice were tape stripped, uninfected, and treated with PCA. When used, the PCA test reagent was applied topically in an aqueous solution on the stripped site at two hours and 24 hours.
(§3) The testing reagents consisted of and PCA formulated at one dose, 25 mM, in an aqueous solution. Levels of IGF-1, TGF-β, and EGF levels in the skin tissue at 48 hours were measured by ELISA. There were two control groups: the stripped skin and the stripped skin and infected.

IGF-1 [9] = assay: as above; assay type: in vivo; conditions: 25 mM; stripped and infected mice skin; 48 hours
Description: as §2, §3

eye tissues = assay: Irritation of eye tissues
[10] = 48 and 96 hours, topical, aqueous

With `CC1(C)S[C@@H]2[C@H](NC(=O)[C@H](N)c3ccc(O)cc3)C(=O)N2[C@H]1C(=O)O` [Amoxicillin, amoxicillin, reference compound] the “effect on Pseudomonas aeruginosa” value (Pseudomonas aeruginosa) was “no effect”.
For `OC[C@H]1O[C@@H](Oc2cc3c(O)cc(O)cc3[o+]c2-c2ccc(O)c(O)c2)[C@H](O)[C@@H](O)[C@@H]1O` [C3G, Cyanidin 3-glucoside], the “bactericidal against P. acnes” value (P. acnes) was “bactericidal”, the “susceptibility of P. acnes” value (P. acnes) was “susceptible” and the “local level of EGF” value (EGF [1]) was “decrease”. The “local level of IGF-1” value (IGF-1 [2]) was “decrease”, the “local level of TGF-β” value (TGF-β) was “decrease” and the dermal layer thickness ([3]; 100 mM, 48 hours) was “thicker”. The hair follicles ([3]; 100 mM, 48 hours) was “single and double cellular lining”, the inflammation ([3]; 100 mM, 48 hours) was “inflammation in the dermis and muscular layer and below” and the surface cellularity ([3]; 100 mM, 48 hours) was “multiple cellular covering”. For the same compound, the vascularity ([3]; 100 mM, 48 hours) was “prominent”, the dermal layer thickness ([3]; 200 mM, 48 hours) was “thickened” and the hair follicles ([3]; 200 mM, 48 hours) was “single and double cellular lining”. For the same compound, the inflammation ([3]; 200 mM, 48 hours) was “inflammation in the dermis and muscular layer”, the surface cellularity ([3]; 200 mM, 48 hours) was “multiple cells thick” and the vascularity ([3]; 200 mM, 48 hours) was “increased”. The “tissue repair as evidenced by histology” value [3] was “stimulated tissue repair”, the bacterial burden ([4]; 100 mM, 48 and 96 hours) was “significantly reduced” and the bacterial burden ([4]; 200 mM, 48 and 96 hours) was “significantly reduced”. The bacterial burden [4, 10] was “decreased the bacterial burden”, the “kill of Pseudomonas aeruginosa” value ([4]; 48 hours) was 10,000 fold and the “dose with most significant decrease of bacteria” value [4] was 100 mM and 200 mM. The “bactericidal on stripped skin wound” value ([4]; topical) was “bactericidal”, the bacterial burden [5] was “decreased the bacterial burden” and the most effective dose [5] was 100 mM.
In the case of `O=C(O)c1ccc(O)c(O)c1` [PCA, protocatechuic acid], the “duration in the body” value [6] is given as 8 h, the route of elimination [6] is given as “via the urine and feces” and the “time of peak amount” value [6] is given as 2 h. For the same compound, the “bactericidal against P. acnes” value (P. acnes) was “bactericidal”, the “susceptibility of P. acnes” value (P. acnes) was “susceptible” and the “susceptibility of Candida albicans” value (Candida albicans) was “susceptible”. The “collagen between epidermis and dermis” value ([3]; 25 mM, 48 hours) was “collagen proliferation; also recorded: collagen layer formation”, the dermal layer thickness ([3]; 25 mM, 48 hours) was “thickened” and the hair follicles ([3]; 25 mM, 48 hours) was “prominent with multiple cellular lining”. The inflammation ([3]; 25 mM, 48 hours) was “abundant inflammation”, the surface cellularity ([3]; 25 mM, 48 hours) was “abundant and multiple cell layers” and the vascularity ([3]; 25 mM, 48 hours) was “moderate vascularity”. The dermal layer thickness ([3]; 50 mM, 48 hours) was “thicker”, the hair follicles ([3]; 50 mM, 48 hours) was “double layer of cells” and the inflammation ([3]; 50 mM, 48 hours) was “increased in the dermis and below the muscle layer”. For the same compound, the surface cellularity ([3]; 50 mM, 48 hours) was “covered with multiple layers of cells”, the vascularity ([3]; 50 mM, 48 hours) was “increased vascularity” and the “tissue repair as evidenced by histology” value [3] was “stimulated tissue repair”. The “solubility in a lens care solution” value [7] was “soluble”, the “statistical significance of bacterial burden reduction” value ([4]; 25 mM, 48 hours) was “statistically significant” and the bacterial burden ([4]; 25 mM, both time periods (48 and 96 hours)) was “reduced the bacterial burden”. The bacterial burden [4, 10] was “decreased the bacterial burden”, the “kill of Pseudomonas aeruginosa” value ([4]; 48 hours) was 10,000 fold and the “dose with most significant decrease of bacteria” value [4] was 25 mM. The “bactericidal on stripped skin wound” value ([4]; topical) was “bactericidal”, the EGF response level (EGF [8]) was “lowest” and the IGF-1 production (IGF-1 [9]) was “optimizes the IGF-1 production”. For the same compound, the “effect on Pseudomonas aeruginosa” value (Pseudomonas aeruginosa) was “some effectiveness”, the “irritation of eye tissues” value (eye tissues) was “non-irritating” and the bacterial burden [5] was “decreased the bacterial burden”. It also gave a most effective dose [5] of 50 mM.
